Assays:
[1] = system: HSV, Type II; test: Direct plaque-forming unit (PFU) count in BSC cells in defined media with set lysine (or derivative):arginine ratio; format: cell-based; settings: average of three tests
Experimental: Absorbed virons were absorbed in susceptible cells in chemically defined media and the number of plaques made were counted. (See Davis, B. D., et al., Microbiology, 2nd Ed., Harper & Row, 1973, Part V, and sources cited therein for procedural details and discussion of the plaque method.)
The cell line chosen was green monkey kidney cells (BSC) that have been passed greater than 41 times. […] The virons were added to a confluent lawn of BSC cells and allowed to absorb at 25° C. for one hour. The unabsorbed virons and the media were removed by washing three times in PBS. […] The control media contained a lysine/arginine ratio of 1:1. The plaques were counted when easily readable. Flasks are done in triplicate.

[2] = system: Herpes simplex II virus; test: Back titration plaque assay: PFU counts at stated amounts of compound under test and arginine; format: cell-based, Herpes simplex II virus (BSC cells)
Experimental: The following experiments were conducted by back titration: Herpes simplex II virus from laboratory stocks was used. BSC cells were grown to confluence in Eagles medium with 15% fetal calf serum, 150 units per milliliter of penicillin and 100 micrograms per milliliter of streptomycin. The cultures were inoculated with 500 PFU of HS II. The virons were allowed to absorb for one hour at 25° C. The tissue cultures were then washed three times with sterile PBS to remove excess media and non-absorbed virons. The cells were then incubated at 37° C. until four-plus cytopathic effects were observed. The cells were then disrupted by slow freeze-thaw two times. The suspension was then clarified by slow speed centrifugation at 4° C. The supemanant suspension was then added to confluent BSC cultures. After one hour absorption, the cells were washed with PBS twice. The cells were overlaid in defined reagent (in triplicate) Eagles media in noble agar. The cells were then incubated at 37° C. until the plaques were easily counted, usually 40 t 72 hours. the cells were then washed two times with PBS and then fixed with 10% H2CO and a 2% sodium acetate. The cells were then stained in 0.1% crystal violet in ethanol. In the tables which follow the concentration of the compound to be tested, in micrograms per milliliter, is listed across the top of the table and the concentration of arginine in micrograms per milliliter is listed down the left side of the table, the count of plaque-forming units being shown in the matrix.

[3] = Compound Ratio to Arginine 10:1
[4] = Compound Ratio to Arginine 100:1
[5] = compound 10 μg/ml, arginine 0 μg/ml
[6] = compound 10 μg/ml, arginine 2.5 μg/ml
[7] = compound 10 μg/ml, arginine 5.0 μg/ml
[8] = compound 10 μg/ml, arginine 7.5 μg/ml
[9] = compound 10 μg/ml, arginine 10 μg/ml
[10] = compound 10 μg/ml, arginine 15 μg/ml
[11] = compound 10 μg/ml, arginine 20 μg/ml
[12] = compound 10 μg/ml, arginine 25 μg/ml
[13] = compound 25 μg/ml, arginine 0 μg/ml
[14] = compound 25 μg/ml, arginine 2.5 μg/ml
[15] = compound 25 μg/ml, arginine 5.0 μg/ml
[16] = compound 25 μg/ml, arginine 7.5 μg/ml
[17] = compound 25 μg/ml, arginine 10 μg/ml
[18] = compound 25 μg/ml, arginine 15 μg/ml
[19] = compound 25 μg/ml, arginine 20 μg/ml
[20] = compound 25 μg/ml, arginine 25 μg/ml
[21] = compound 50 μg/ml, arginine 0 μg/ml
[22] = compound 50 μg/ml, arginine 2.5 μg/ml
[23] = compound 50 μg/ml, arginine 5.0 μg/ml
[24] = compound 50 μg/ml, arginine 7.5 μg/ml
[25] = compound 50 μg/ml, arginine 10 μg/ml
[26] = compound 50 μg/ml, arginine 15 μg/ml
[27] = compound 50 μg/ml, arginine 20 μg/ml
[28] = compound 50 μg/ml, arginine 25 μg/ml
[29] = compound 100 μg/ml, arginine 0 μg/ml
[30] = compound 100 μg/ml, arginine 2.5 μg/ml
[31] = compound 100 μg/ml, arginine 5.0 μg/ml
[32] = compound 100 μg/ml, arginine 7.5 μg/ml
[33] = compound 100 μg/ml, arginine 10 μg/ml
[34] = compound 100 μg/ml, arginine 15 μg/ml
[35] = compound 100 μg/ml, arginine 20 μg/ml
[36] = compound 100 μg/ml, arginine 25 μg/ml
[37] = compound 200 μg/ml, arginine 0 μg/ml
[38] = compound 200 μg/ml, arginine 2.5 μg/ml
[39] = compound 200 μg/ml, arginine 5.0 μg/ml
[40] = compound 200 μg/ml, arginine 7.5 μg/ml
[41] = compound 200 μg/ml, arginine 10 μg/ml
[42] = compound 200 μg/ml, arginine 15 μg/ml
[43] = compound 200 μg/ml, arginine 20 μg/ml
[44] = compound 200 μg/ml, arginine 25 μg/ml
[45] = compound 300 μg/ml, arginine 0 μg/ml
[46] = compound 300 μg/ml, arginine 2.5 μg/ml
[47] = compound 300 μg/ml, arginine 5.0 μg/ml
[48] = compound 300 μg/ml, arginine 7.5 μg/ml
[49] = compound 300 μg/ml, arginine 10 μg/ml
[50] = compound 300 μg/ml, arginine 15 μg/ml
[51] = compound 300 μg/ml, arginine 20 μg/ml
[52] = compound 300 μg/ml, arginine 25 μg/ml
[53] = compound 400 μg/ml, arginine 0 μg/ml
[54] = compound 400 μg/ml, arginine 2.5 μg/ml
[55] = compound 400 μg/ml, arginine 5.0 μg/ml
[56] = compound 400 μg/ml, arginine 7.5 μg/ml
[57] = compound 400 μg/ml, arginine 10 μg/ml
[58] = compound 400 μg/ml, arginine 15 μg/ml
[59] = compound 400 μg/ml, arginine 20 μg/ml
[60] = compound 400 μg/ml, arginine 25 μg/ml
[61] = compound 500 μg/ml, arginine 0 μg/ml
[62] = compound 500 μg/ml, arginine 2.5 μg/ml
[63] = compound 500 μg/ml, arginine 5.0 μg/ml
[64] = compound 500 μg/ml, arginine 7.5 μg/ml
[65] = compound 500 μg/ml, arginine 10 μg/ml
[66] = compound 500 μg/ml, arginine 15 μg/ml
[67] = compound 500 μg/ml, arginine 20 μg/ml
[68] = compound 500 μg/ml, arginine 25 μg/ml

CC(CCN)CC(N)C(=O)O (stereo not drawn) [4-Methyl lysine]
P.F.U. Count [1, 3]: 541
P.F.U. Count [1, 4]: 140
P.F.U. Count [2, 5]: 37
P.F.U. Count [2, 6]: 110
P.F.U. Count [2, 7]: 3.7 × 10^3
P.F.U. Count [2, 8]: 7.2 × 10^4
P.F.U. Count [2, 9]: 9.6 × 10^4
P.F.U. Count [2, 10]: 2.3 × 10^5
P.F.U. Count [2, 11]: 3.1 × 10^5
P.F.U. Count [2, 12]: 3.3 × 10^5
P.F.U. Count [2, 13]: 10
P.F.U. Count [2, 14]: 74
P.F.U. Count [2, 15]: 310
P.F.U. Count [2, 16]: 6.6 × 10^4
P.F.U. Count [2, 17]: 8.7 × 10^4
P.F.U. Count [2, 18]: 9.6 × 10^4
P.F.U. Count [2, 19]: 3.3 × 10^5
P.F.U. Count [2, 20]: 3.4 × 10^5
P.F.U. Count [2, 21]: 0
P.F.U. Count [2, 22]: 0
P.F.U. Count [2, 23]: 671
P.F.U. Count [2, 24]: 5.0 × 10^4
P.F.U. Count [2, 25]: 7.0 × 10^4
P.F.U. Count [2, 26]: 7.9 × 10^4
P.F.U. Count [2, 27]: 3.1 × 10^5
P.F.U. Count [2, 28]: 3.6 × 10^5
P.F.U. Count [2, 29]: 0
P.F.U. Count [2, 30]: 0
P.F.U. Count [2, 31]: 371
P.F.U. Count [2, 32]: 4.2 × 10^4
P.F.U. Count [2, 33]: 4.0 × 10^7
P.F.U. Count [2, 34]: 5.0 × 10^4
P.F.U. Count [2, 35]: 3.6 × 10^5
P.F.U. Count [2, 36]: 3.1 × 10^5
P.F.U. Count [2, 37]: 0
P.F.U. Count [2, 38]: 0
P.F.U. Count [2, 39]: 191
P.F.U. Count [2, 40]: 1.0 × 10^4
P.F.U. Count [2, 41]: 1.8 × 10^4
P.F.U. Count [2, 42]: 6.8 × 10^4
P.F.U. Count [2, 43]: 3.2 × 10^5
P.F.U. Count [2, 44]: 3.0 × 10^5
P.F.U. Count [2, 45]: 0
P.F.U. Count [2, 46]: 0
P.F.U. Count [2, 47]: 169
P.F.U. Count [2, 48]: 1.1 × 10^7
P.F.U. Count [2, 49]: 1.9 × 10^4
P.F.U. Count [2, 50]: 2.7 × 10^4
P.F.U. Count [2, 51]: 3.1 × 10^5
P.F.U. Count [2, 52]: 3.3 × 10^5
P.F.U. Count [2, 53]: 0
P.F.U. Count [2, 54]: 0
P.F.U. Count [2, 55]: 671
P.F.U. Count [2, 56]: 1.9 × 10^3
P.F.U. Count [2, 57]: 1.7 × 10^4
P.F.U. Count [2, 58]: 2.0 × 10^4
P.F.U. Count [2, 59]: 3.0 × 10^5
P.F.U. Count [2, 60]: 3.3 × 10^5
P.F.U. Count [2, 61]: 0
P.F.U. Count [2, 62]: 0
P.F.U. Count [2, 63]: 239
P.F.U. Count [2, 64]: 6.7 × 10^3
P.F.U. Count [2, 65]: 1.3 × 10^4
P.F.U. Count [2, 66]: 1.4 × 10^4
P.F.U. Count [2, 67]: 2.4 × 10^5
P.F.U. Count [2, 68]: 2.9 × 10^5

CC(CN)CC[C@H](N)C(=O)O (stereo partly drawn) [5-Methyl lysine]
P.F.U. Count [1, 3]: 79
P.F.U. Count [1, 4]: 43
P.F.U. Count [2, 5]: 30
P.F.U. Count [2, 6]: 2.7 × 10^3
P.F.U. Count [2, 7]: 3.7 × 10^4
P.F.U. Count [2, 8]: 6.0 × 10^4
P.F.U. Count [2, 9]: 7.9 × 10^4
P.F.U. Count [2, 10]: 2.0 × 10^5
P.F.U. Count [2, 11]: 3.0 × 10^5
P.F.U. Count [2, 12]: 3.0 × 10^5
P.F.U. Count [2, 13]: 0
P.F.U. Count [2, 14]: 697
P.F.U. Count [2, 15]: 1.4 × 10^3
P.F.U. Count [2, 16]: 4.7 × 10^3
P.F.U. Count [2, 17]: 6.5 × 10^4
P.F.U. Count [2, 18]: 1.7 × 10^4
P.F.U. Count [2, 19]: 3.1 × 10^5
P.F.U. Count [2, 20]: 3.0 × 10^5
P.F.U. Count [2, 21]: 0
P.F.U. Count [2, 22]: 0
P.F.U. Count [2, 23]: 190
P.F.U. Count [2, 24]: 190
P.F.U. Count [2, 25]: 1.7 × 10^3
P.F.U. Count [2, 26]: 1.3 × 10^3
P.F.U. Count [2, 27]: 3.0 × 10^5
P.F.U. Count [2, 28]: 3.0 × 10^5
P.F.U. Count [2, 29]: 0
P.F.U. Count [2, 30]: 0
P.F.U. Count [2, 31]: 69
P.F.U. Count [2, 32]: 170
P.F.U. Count [2, 33]: 656
P.F.U. Count [2, 34]: 710
P.F.U. Count [2, 35]: 1.2 × 10^5
P.F.U. Count [2, 36]: 2.4 × 10^5
P.F.U. Count [2, 37]: 0
P.F.U. Count [2, 38]: 0
P.F.U. Count [2, 39]: 0
P.F.U. Count [2, 40]: 0
P.F.U. Count [2, 41]: 79
P.F.U. Count [2, 42]: 63
P.F.U. Count [2, 43]: 2.7 × 10^5
P.F.U. Count [2, 44]: 4.1 × 10^5
P.F.U. Count [2, 45]: 0
P.F.U. Count [2, 46]: 0
P.F.U. Count [2, 47]: 0
P.F.U. Count [2, 48]: 0
P.F.U. Count [2, 49]: 0
P.F.U. Count [2, 50]: 1.9 × 10^4
P.F.U. Count [2, 51]: 5.6 × 10^4
P.F.U. Count [2, 52]: 6.1 × 10^4
P.F.U. Count [2, 53]: 0
P.F.U. Count [2, 54]: 0
P.F.U. Count [2, 55]: 0
P.F.U. Count [2, 56]: 0
P.F.U. Count [2, 57]: 0
P.F.U. Count [2, 58]: 1.9 × 10^4
P.F.U. Count [2, 59]: 1.7 × 10^4
P.F.U. Count [2, 60]: 4.6 × 10^4
P.F.U. Count [2, 61]: 0
P.F.U. Count [2, 62]: 0
P.F.U. Count [2, 63]: 0
P.F.U. Count [2, 64]: 0
P.F.U. Count [2, 65]: 0
P.F.U. Count [2, 66]: 1.0 × 10^4
P.F.U. Count [2, 67]: 2.3 × 10^3
P.F.U. Count [2, 68]: 4.0 × 10^4

Source: US20030153618A1, “Treatment and prevention of herpes simplex infections” (priority 1999, published 2003)
